# Experimental data from PubChem BioAssay AID1259333 (Broad Institute, 2017).
# Active and inactive are the calls of the source. No rule for the calls is given here; tested in parental BL2 cells.
# Experiment: cell cytotoxicity, dose response, cytotoxicity control, CellTiter-Glo (AID 1259333);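 also: 0% = vehicle neutral controls and -100% = reference inhibitor positive controls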
# Conditions: cytotoxicity, CellTiter-Glo ATP luminescence; at 3.5 µM (top of the series)
row,Compound,"activity change, negative = cytotoxicity"
1,COc1cccc(S(=O)(=O)N(C)C[C@H]2OCc3ccccc3-c3c(n(C)c4ccccc34)C(=O)N([C@@H](C)CO)C[C@H]2C)c1,15.7% (inactive)
2,O=C1C=CC(=O)c2c(O)c(N3CCN(CCOCCO)CC3)c(Br)c(O)c21,104% (inactive)

# Same assay, conditions: cytotoxicity, CellTiter-Glo ATP luminescence; at 10 µM (top of the series)
row,Compound,"activity change, negative = cytotoxicity"
1,CC1CCOC(=O)C=CC=CC(=O)OC2CC3OC4C5OC5(C)C(O)CC4(COC(=O)C1O)C2(C)C31CO1 (centres undefined),6.8% (inactive)
2,Cc1ccccc1-c1ccc2c(c1)O[C@@H](CN(C)C(=O)Nc1ccc(C(F)(F)F)cc1)[C@@H](C)CN([C@@H](C)CO)S2(=O)=O,16.7% (inactive)
3,Cn1cnc(S(=O)(=O)N2C[C@@H]3N[C@H](C2)C3c2ccc(-c3ccccc3F)cc2)c1 (some centres undefined),36.7% (inactive)
4,CCC(=O)NC(c1ccccc1OC)c1ccc2cccnc2c1O (centres undefined),40.2% (inactive)
5,NS(=O)(=O)c1nn2cc(-c3ccccc3)nc2s1,65.7% (inactive)
6,Cc1cc(C(=O)COC(=O)c2cccn2C)c(C)n1Cc1ccco1,23.8% (inactive)
7,O=C(Cc1ccccc1)N1CC[C@@H]2[C@H]1c1cc(-c3cccc(F)c3)ccc1N[C@@H]2CO,8.92% (inactive)
8,COC(=O)c1ccc2c(=O)[nH]c(COC(=O)c3c(-c4ccccc4)noc3C)nc2c1,11% (inactive)
9,CCOC(=O)c1c(SCCN2CCCC2)n(-c2ccccc2)c(=S)n(-c2ccccc2)c1=O,63.8% (inactive)
10,NC(c1ccccc1)c1csc(NC(=O)Nc2cccc(C(F)(F)F)c2)n1 (centres undefined),-26.9% (inactive)
11,C/C=C/c1ccc(C2[C@H]3CNC[C@@H]2N3Cc2cccc(OC)c2)cc1 (some centres undefined),18% (inactive)
12,CC(=NNc1ccc2ccccc2n1)c1ccccc1O,-29.4% (inactive)
13,C[C@H](CO)N1C[C@H](C)[C@H](CN(C)C(=O)C2CCOCC2)Oc2ncc(C#CCc3ccccc3)cc2C1=O,0.181% (inactive)
14,Oc1cc2c(cc1C(c1ccc(Br)cc1)N1CCCC1)OCO2 (centres undefined),7.99% (inactive)
15,N#C[C@H]1[C@@H](c2ccccc2-c2ccccc2)[C@@H](CO)N1C(=O)NC1CCCC1,-17.1% (inactive)
16,O=C1CC(c2ccc3c(c2)OCO3)Sc2nc3ccccc3n21 (centres undefined),31.6% (inactive)
17,Cc1ccc(-c2cc(C(=O)N(C)CC(=O)Nc3ccccc3Br)c3ccccc3n2)o1,130% (inactive)
18,CC(=O)OC1CCC2(C)C(CCC3C4CC=C(C(C)=O)C4(C)OC(=O)CC32)C1 (centres undefined),133% (inactive)
19,CC(C)(C)NCC(=Cc1ccccc1)C(=O)c1ccccc1,103% (inactive)
20,C[C@H]1CCCCO[C@H](CN(C)Cc2ccc(C(F)(F)F)cc2)[C@@H](C)CN([C@@H](C)CO)C(=O)c2cc(NC(=O)Nc3cccc4ccccc34)ccc2O1,29.1% (inactive)
21,Fc1ccccc1/C=C1\CCCC2=C1Nc1nnnn1C2c1ccccc1F (centres undefined),12.3% (inactive)
22,CCc1cnc(N2[C@H](C#N)[C@@H](c3ccc(C#CC(C)C)cc3)[C@H]2CO)s1,10.7% (inactive)
23,CC(=O)O[C@@H]1C[C@@]2(C)[C@H](c3ccoc3)C[C@H]3O[C@]32[C@]2(C)C(=O)C(=O)C3C(C)(C)C(=O)C=C[C@]3(C)C12 (some centres undefined),188% (inactive)
24,CC1(C)C(=O)C=C[C@@]2(C)C1C=C[C@]1(C)C2CC[C@@]2(C)[C@H](c3ccoc3)OC(=O)[C@H]3O[C@]321 (some centres undefined),15.6% (inactive)
25,Cc1ccccc1S(=O)(=O)N1C[C@@H]2N[C@H](C1)C2c1ccc(-c2cccc(C#N)c2)cc1 (some centres undefined),54.5% (inactive)
26,Cc1ccc(P(=O)(CSC(=N)N)c2ccc(C)cc2)cc1,-36.8% (inactive)

# Same assay, conditions: cytotoxicity, CellTiter-Glo ATP luminescence; at 11 µM (top of the series)
row,Compound,"activity change, negative = cytotoxicity"
1,N#C[C@@H]1[C@@H](c2ccccc2-c2ccc(F)cc2)[C@H](CO)N1C(=O)NC1CCCCC1,19.3% (inactive)
